Patent US20050096327A1, “Novel norepinephrine reuptake inhibitors for the treatment of central nervous system disorders” (priority 2003, published 2005)
Counter-ions that a name gives are not always drawn.

Tests used:
[1] = biological target: T1, human norepinephrine transporter (Homo sapiens, UniProt P23975); assay: hNET receptor binding ([125I]-RTI-55, membranes of transfected HEK-293 cells); settings: 50 pM [125I]-RTI-55, 90 min room temperature; IC50 converted by Cheng-Prusoff
T1 construct: host or cells: HEK-293
Experimental: (§1) Cell pastes of HEK-293 cells transfected with the human norepinephrine transporter were supplied by the Pfizer Ann Arbor Protein Expression and Production group. Pellets were resuspended in 400 to 700 ml of Krebs-HEPES assay buffer (25 mM HEPES, 122 mM NaCl, 3 mM KCl, 1.2 mM MgSO4, 1.3 mM CaCl2, and 11 mM glucose, pH 7.4) with a Polytron homogenizer at setting 7 for 30 sec. Aliquots of membranes (5 mg/ml protein) were stored in liquid nitrogen until used.
The binding assay was set up in Beckman deep-well polypropylene plates with a total volume of 250 μl containing: drug (10^−5M to 10^−12M), cell membranes, and 50 pM [^125I]-RTI-55 (Perkin Elmer, NEX-272; specific activity 2200 Ci/mmol). The reaction was incubated by gentle agitation for 90 min at room temperature and was terminated by filtration through Whatman GF/C filter plates using a Brandel 96-well plate harvester. Scintillation fluid (100 μl) was added to each well, and bound [^125I]-RTI-55 was determined using a Wallac Trilux Beta Plate Counter. Test compounds were run in duplicate, and specific binding was defined as the difference between binding in the presence and absence of 10 μM desipramine.
Excel and GraphPad Prism software were used for data calculation and analysis. IC50 values were converted to Ki values using the Cheng-Prusoff equation. The Ki values for the hNET are reported below in Table 1.

[2] = biological target: T2, human serotonin transporter (Homo sapiens, UniProt P31645); assay: hSERT receptor binding ([125I]-RTI-55, membranes of transfected HEK-293 cells); settings: 50 pM [125I]-RTI-55, 90 min room temperature; IC50 converted by Cheng-Prusoff
T2 construct: host or cells: HEK-293
Experimental: as §1, with “serotonin” for “norepinephrine”, “Group.” for “group.”, “mL” for “ml”, “Setting” for “setting”, “seconds.” for “sec.”, “(˜2.5 mg/mL” for “(5 mg/ml”
Assays were set up in FlashPlates pre-coated with 0.1% PEI in a total volume of 250 μL containing: drug (10^−5M to 10^−12M), cell membranes, and 50 pM [^125I]-RTI-55 (Perkin Elmer, NEX-272; specific activity 2200 Ci/mmol). The reaction was incubated and gently agitated for 90 minutes at room temperature, and terminated by removal of assay volume. Plates were covered, and bound [^125I]-RTI-55 was determined using a Wallac Trilux Beta Plate Counter. Test compounds were run in duplicate, and specific binding was defined as the difference between binding in the presence and absence of 10 μM citalopram.
Excel and GraphPad Prism software were used for data calculation and analysis. IC50 values were converted to Ki values using the Cheng-Prusoff equation. The Ki values for the hSERT are reported below in Table 1.

T2 sequence (P31645 whole entry): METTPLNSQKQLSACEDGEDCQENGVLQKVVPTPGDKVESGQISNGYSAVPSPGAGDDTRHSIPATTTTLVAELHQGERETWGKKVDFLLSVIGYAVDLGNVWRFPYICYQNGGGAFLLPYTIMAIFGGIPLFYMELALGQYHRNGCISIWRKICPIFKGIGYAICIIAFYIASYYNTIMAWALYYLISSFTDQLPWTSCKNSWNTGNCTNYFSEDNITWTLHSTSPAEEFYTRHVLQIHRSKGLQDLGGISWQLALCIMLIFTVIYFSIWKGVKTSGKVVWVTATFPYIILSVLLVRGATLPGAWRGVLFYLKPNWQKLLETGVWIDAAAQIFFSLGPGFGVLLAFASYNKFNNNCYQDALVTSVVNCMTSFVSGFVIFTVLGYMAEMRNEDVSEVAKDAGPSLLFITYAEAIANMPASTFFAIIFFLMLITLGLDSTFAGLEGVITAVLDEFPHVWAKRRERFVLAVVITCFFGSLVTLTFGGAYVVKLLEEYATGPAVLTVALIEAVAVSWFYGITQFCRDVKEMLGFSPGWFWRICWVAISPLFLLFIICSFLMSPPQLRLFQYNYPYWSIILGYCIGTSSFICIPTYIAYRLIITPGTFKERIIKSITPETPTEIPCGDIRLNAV
T1 sequence (P23975 whole entry): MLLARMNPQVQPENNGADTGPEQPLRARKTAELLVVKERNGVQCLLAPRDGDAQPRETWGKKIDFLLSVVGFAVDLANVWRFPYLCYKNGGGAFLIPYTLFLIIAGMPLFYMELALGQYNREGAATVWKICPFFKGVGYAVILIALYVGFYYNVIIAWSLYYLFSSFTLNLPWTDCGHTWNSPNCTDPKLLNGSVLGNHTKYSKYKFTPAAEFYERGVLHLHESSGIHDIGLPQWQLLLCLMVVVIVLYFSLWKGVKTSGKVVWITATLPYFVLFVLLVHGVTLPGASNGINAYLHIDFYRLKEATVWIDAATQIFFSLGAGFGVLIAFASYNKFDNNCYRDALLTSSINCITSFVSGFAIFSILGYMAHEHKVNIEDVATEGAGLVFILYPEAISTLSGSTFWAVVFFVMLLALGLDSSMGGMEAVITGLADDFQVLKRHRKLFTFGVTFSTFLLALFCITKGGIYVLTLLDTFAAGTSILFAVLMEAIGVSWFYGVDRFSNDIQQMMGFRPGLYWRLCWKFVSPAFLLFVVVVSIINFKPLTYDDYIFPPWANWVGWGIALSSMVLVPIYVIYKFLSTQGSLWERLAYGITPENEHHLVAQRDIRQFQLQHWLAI

Compound | Ki [1] [nM] | Ki [2] [nM]
Clc1ccc(Cl)c(-c2nc(N3CCNCC3)nc3ccccc23)c1 [Example 125, 4-(2,5-dichloro-phenyl)-2-piperazin-1-yl-quinazoline] | 32.2 | 636
Fc1ccc(-c2nc(N3CCNCC3)nc3ccccc23)cc1F [Example 108, 4-(3,4-difluoro-phenyl)-2-piperazin-1-yl-quinazoline] | 7.7 | 77.7
Fc1ccccc1-c1nc(N2CCNCC2)nc2ccc(Cl)cc12 [Example 129, 4-(2-Fluoro-phenyl)-6-chloro-2-piperazin-1-yl-quinazoline] | 25.6 | 8.4
CC[C@H]1CNCCN1c1nc(-c2c(F)cccc2F)c2ccccc2n1 [Example 164, S-4-(2,6-Difluoro-phenyl)-2-(2-ethyl-piperazin-1-yl)-quinazoline] | 31.8 | 18
C[C@H]1CNCCN1c1nc(-c2c(F)cccc2F)c2ccccc2n1 [Example 127, S-4-(2,6-Difluoro-phenyl)-2-(2-methyl-piperazin-1-yl)-quinazoline] | 33.9 | 58.6
CC(C)[C@H]1CNCCN1c1nc(-c2cccc(F)c2F)c2ccccc2n1 [Example 166, S-4-(2,3-Difluoro-phenyl)-2-(2-isopropyl-piperazin-1-yl)-quinazoline] | 79.7 | 185
Fc1ccc(-c2nc(N3CCNCC3)nc3ccc(F)cc23)c(F)c1 [Example 122, 4-(2,4-Difluoro-phenyl)-6-fluoro-2-piperazin-1-yl-quinazoline] | 12.1 | 15.5
Fc1ccc(-c2nc(NC3CNC3)nc3cc(F)ccc23)c(F)c1 [Example 141, Azetidin-3-yl-[4-(2,4-difluoro-phenyl)-7-fluoro-quinazolin-2-yl]-amine] | 102 | 1920
S-[4-(2,4-Difluoro-phenyl)-7-fluoro-quinazolin-2-yl]-pyrrolidin-3-yl-amine [Example 144] | 23.4 | 26.5
S-4-(2,4-Difluoro-phenyl)-7-fluoro-2-(2-methyl-piperazin-1-yl)-quinazoline [Example 139] | 30.7 | 24.9
N[C@H]1CCN(c2nc(-c3c(F)cccc3F)c3ccc(F)cc3n2)C1 [Example 94, S-1-[4-(2,6-Difluoro-phenyl)-7-fluoro-quinazolin-2-yl]-pyrrolidin-3-ylamine] | 23.7 | 15.7
CNC1CCN(c2nc(-c3cccc(F)c3F)c3ccccc3n2)C1 (centres unmarked) [Example 157, {1-[4-(2,3-Difluoro-phenyl)-quinazolin-2-yl]-pyrrolidin-3-yl}-methyl-amine] | 148 | 4250
Fc1ccccc1-c1nc(C2CCCNC2)nc2ccccc12 (centres unmarked) [Example 77, 4-(2-Fluoro-phenyl)-2-piperidin-3-yl-quinazoline] | 22.8 | 
NCCNc1nc(-c2ccccc2)c2ccccc2n1 [Example 13, N^1-(4-Phenyl-quinazolin-2-yl)-ethane-1,2-diamine hydrochloride] | 89.2 | 
Fc1ccc(F)c(-c2nc(C3CCNCC3)nc3ccccc23)c1F [Example 73, 2-Piperidin-4-yl-4-(2,3,6-trifluoro-phenyl)-quinazoline] | 15.9 | 
4-(2,4-Difluoro-phenyl)-2-piperazin-1-yl)-quinazoline hydrochloride [Example 38] | 2 | 

Further lines, results first:

Ki [1] [nM] | Ki [2] [nM] | Compound
16.6 | 121 | Cc1cccc2nc(N3CCNCC3)nc(-c3ccccc3)c12 [Example 145, 5-Methyl-4-phenyl-2-piperazin-1-yl-quinazoline]
11.4 | 155 | N[C@@H]1CCN(c2nc(-c3cccc(F)c3F)c3ccccc3n2)C1 [Example 102, R-1-[4-(2,3-Difluoro-phenyl)-quinazolin-2-yl]-pyrrolidin-3-ylamine]
16.6 | 65 | C[C@@H]1CNCCN1c1nc(-c2ccccc2)c2ccc(F)cc2n1 [Example 105, R-7-Fluoro-2-(2-methyl-piperazin-1-yl)-4-phenyl-quinazoline]
30 | 4.8 | Fc1cccc(F)c1-c1nc(N2CCNCC2)nc2ccc(Cl)cc12 [Example 131, 4-(2,6-Difluoro-phenyl)-6-chloro-2-piperazin-1-yl-quinazoline]
28.5 | 47.2 | Fc1cc2nc(N3CCNCC3)nc(-c3cccc(F)c3F)c2cc1F [Example 123, 4-(2,3-Difluoro-phenyl)-6,7-difluoro-2-piperazin-1-yl-quinazoline]
20 | 32 | Fc1ccc2c(-c3c(F)cccc3F)nc(N3CCNCC3)nc2c1 [Example 98, 4-(2,6-Difluoro-phenyl)-7-fluoro-2-piperazin-1-yl-quinazoline]
211 | 31.4 | Brc1ccc2nc(N3CCNCC3)nc(-c3ccccc3)c2c1 [Example 91, 6-Bromo-4-phenyl-2-piperazin-1-yl-quinazoline]
36.4 | 27.6 | C[C@@H]1CNCCN1c1nc(-c2c(F)cccc2F)c2ccc(F)cc2n1 [Example 104, R-4-(2,6-Difluoro-phenyl)-7-fluoro-2-(2-methyl-piperazin-1-yl)-quinazoline]
 | 1090 | CN1CCN(c2nc(-c3ccc(F)c(F)c3)c3ccccc3n2)CC1 [Example 114, 4-(3,4-Difluoro-phenyl)-2-(4-methyl-piperazin-1-yl)-quinazoline]
12.6 | 441 | Fc1ccc2c(-c3ccccc3)nc(N3CCNCC3)nc2c1F [Example 163, 7,8-Difluoro-4-phenyl-2-piperazin-1-yl-quinazoline]
135 | 1620 | CNC1CCN(c2nc(-c3c(F)cccc3F)c3ccccc3n2)C1 (centres unmarked) [Example 149, {1-[4-(2,6-Difluoro-phenyl)-quinazolin-2-yl)-pyrrolidin-3-yl}-methyl-amine]
76.9 | 322 | N[C@@H]1CCN(c2nc(-c3c(F)cccc3F)c3ccccc3n2)C1 [Example 95, R-1-[4-(2,6-Difluoro-phenyl)-quinazolin-2-yl]-pyrrolidin-3-ylamine]
30.3 | 62.6 | Fc1ccc(-c2nc(N3CCNCC3)nc3cc(F)ccc23)c(Cl)c1 [Example 134, 4-(2-Chloro-4-fluoro-phenyl)-7-fluoro-2-piperazin-1-yl-quinazoline]
13.9 | 30.4 | N[C@H]1CCN(c2nc(-c3cccc(F)c3F)c3ccc(F)cc3n2)C1 [Example 109, S-1-[4-(2,3-Difluoro-phenyl)-7-fluoro-quinazolin-2-yl]-pyrrolidin-3-yl-amine]
31 | 14.4 | CC[C@H]1CNCCN1c1nc(-c2ccc(F)cc2F)c2ccccc2n1 [Example 165, S-4-(2,4-Difluoro-phenyl)-2-(2-ethyl-piperazin-1-yl)-quinazoline]
425 | > 10000 | Fc1ccc(-c2nc(NCC3CCNC3)nc3ccccc23)c(F)c1 (centres unmarked) [Example 155, [4-(2,4-Difluoro-phenyl)-quinazolin-2-yl]-pyrrolidin-3-ylmethyl-amine]
24.7 | 44.3 | C[C@@H]1CNCCN1c1nc(-c2cccc(F)c2F)c2ccc(F)cc2n1 [Example 130, R-4-(2,3-Difluoro-phenyl)-7-fluoro-2-(2-methyl-piperazin-1-yl)-quinazoline]
90.6 | 91.4 | Fc1ccc(-c2nc(N3CC[C@@H]4CNC[C@@H]43)nc3cc(F)ccc23)c(F)c1 [Example 142, R,R-4-(2,4-Difluoro-phenyl)-7-fluoro-2-(hexahydro-pyrrolo[3,4-b]pyrrol-1-yl)-quinazoline]
13.6 | 57.1 | N[C@@H]1CCN(c2nc(-c3cccc(F)c3F)c3ccc(F)cc3n2)C1 [Example 110, R-1-[4-(2,3-Difluoro-phenyl)-7-fluoro-quinazolin-2-yl]-pyrrolidin-3-yl-amine]
22 | 1590 | Fc1cccc2c(-c3ccccc3)nc(N3CCNCC3)nc12 [Example 133, 8-Fluoro-4-phenyl-2-piperazin-1-yl-quinazoline]
 | 645 | CN1CCN(c2nc(-c3ccc(F)c(F)c3)c3ccccc3n2)CC1 [Example 103, 4-(3,4-Difluoro-phenyl)-2-(4-methyl-piperazin-1-yl)-quinazoline]
